Reference: ChEMBL document CHEMBL1201862, “PubChem BioAssay data set” (2004)
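How tested: cells in 96-well plates exposed to compound for 48 hours at five concentrations. Here, GI50 denotes the concentration required for 50% inhibition of growth.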 Active and inactive are the calls of the source. Rule as the data show it: active = GI50 up to about 1.1 µM and inactive = higher.

What was measured:
Experiment in all cases: growth of human tumour cells (NCI), 48 h
BT-549 = test system: BT-549
COLO 205 = test system: COLO 205
DU-145 = test system: DU-145
HOP-62 = test system: HOP-62
IGROV-1 = test system: IGROV-1
KM12 = test system: KM12
MDA-MB-231 = test system: MDA-MB-231
MDA-MB-435 = test system: MDA-MB-435
Malme-3M = test system: Malme-3M
NCI-H23 = test system: NCI-H23
NCI-H460 = test system: NCI-H460
OVCAR-8 = test system: OVCAR-8
RPMI-8226 = test system: RPMI-8226
RXF 393 = test system: RXF 393
SF-268 = test system: SF-268
SF-295 = test system: SF-295
SW-620 = test system: SW-620
TK-10 = test system: TK-10
UACC-257 = test system: UACC-257
SNB-19 = test system: SNB-19

COc1ccc2o/c(=N/c3ccccc3)c(C(N)=O)cc2c1
GI50 (BT-549): 91 µM (inactive)
GI50 (COLO 205): > 100 µM (inactive)
GI50 (DU-145): > 100 µM (inactive)
GI50 (HOP-62): 32.2 µM (inactive)
GI50 (IGROV-1): > 70.6 µM (inactive)
GI50 (KM12): > 100 µM (inactive)
GI50 (MDA-MB-231): > 53.3 µM (inactive)
GI50 (MDA-MB-435): 3.45 µM (inactive)
GI50 (Malme-3M): > 100 µM (inactive)
GI50 (NCI-H23): > 58.1 µM (inactive)
GI50 (NCI-H460): > 100 µM (inactive)
GI50 (OVCAR-8): > 67.5 µM (inactive)
GI50 (RPMI-8226): > 100 µM (inactive)
GI50 (RXF 393): 39.5 µM (inactive)
GI50 (SF-268): 47.3 µM (inactive)
GI50 (SF-295): 74 µM (inactive)
GI50 (SW-620): > 100 µM (inactive)
GI50 (TK-10): > 49.2 µM (inactive)
GI50 (UACC-257): > 100 µM (inactive)

O=c1c(O)c(-c2cc(O)c(O)c(O)c2)oc2cc(O)cc(O)c12 [MYRICETIN]
GI50 (BT-549): 32.6 µM (inactive)
GI50 (COLO 205): 65.9 µM (inactive)
GI50 (DU-145): > 100 µM (inactive)
GI50 (HOP-62): 20.3 µM (inactive)
GI50 (IGROV-1): 33.9 µM (inactive)
GI50 (KM12): 17.7 µM (inactive)
GI50 (MDA-MB-231): 18.1 µM (inactive)
GI50 (MDA-MB-435): 17.7 µM (inactive)
GI50 (Malme-3M): > 100 µM (inactive)
GI50 (NCI-H23): 18.4 µM (inactive)
GI50 (NCI-H460): 20.4 µM (inactive)
GI50 (OVCAR-8): 17.9 µM (inactive)
GI50 (RPMI-8226): 36.1 µM (inactive)
GI50 (RXF 393): 20.8 µM (inactive)
GI50 (SF-268): 44.2 µM (inactive)
GI50 (SF-295): 20.3 µM (inactive)
GI50 (SW-620): 19.5 µM (inactive)
GI50 (TK-10): > 100 µM (inactive)
GI50 (UACC-257): 29.2 µM (inactive)

NCCCN(CCCCN(CCCN)Cc1ccccc1)Cc1ccccc1
GI50 (BT-549): 79.6 µM (inactive)
GI50 (COLO 205): 32.4 µM (inactive)
GI50 (DU-145): 42.2 µM (inactive)
GI50 (IGROV-1): 17.1 µM (inactive)
GI50 (KM12): 30.4 µM (inactive)
GI50 (MDA-MB-231): > 100 µM (inactive)
GI50 (MDA-MB-435): 56.1 µM (inactive)
GI50 (Malme-3M): 33.3 µM (inactive)
GI50 (NCI-H23): 42.2 µM (inactive)
GI50 (NCI-H460): 15.3 µM (inactive)
GI50 (OVCAR-8): 49.5 µM (inactive)
GI50 (RPMI-8226): > 100 µM (inactive)
GI50 (RXF 393): 85.3 µM (inactive)
GI50 (SF-268): 14.3 µM (inactive)
GI50 (SF-295): 69 µM (inactive)
GI50 (SNB-19): 10.7 µM (inactive)
GI50 (SW-620): > 100 µM (inactive)
GI50 (TK-10): > 100 µM (inactive)
GI50 (UACC-257): 62.1 µM (inactive)

Nc1ccc(-c2nc3cc(F)ccc3s2)cc1Cl
GI50 (BT-549): 8.15 µM (inactive)
GI50 (COLO 205): 0.454 µM (active)
GI50 (DU-145): 63.2 µM (inactive)
GI50 (HOP-62): 8.36 µM (inactive)
GI50 (IGROV-1): < 0.01 µM (active)
GI50 (KM12): 8.99 µM (inactive)
GI50 (MDA-MB-231): 5.08 µM (inactive)
GI50 (MDA-MB-435): > 100 µM (inactive)
GI50 (Malme-3M): 20.1 µM (inactive)
GI50 (NCI-H460): 0.0364 µM (active)
GI50 (OVCAR-8): 38.6 µM (inactive)
GI50 (RPMI-8226): > 55.1 µM (inactive)
GI50 (RXF 393): 24 µM (inactive)
GI50 (SF-268): 25.5 µM (inactive)
GI50 (SF-295): 23.5 µM (inactive)
GI50 (SNB-19): 32.4 µM (inactive)
GI50 (SW-620): > 100 µM (inactive)
GI50 (TK-10): 0.0357 µM (active)
GI50 (UACC-257): 72.6 µM (inactive)

COc1ccccc1NC(=S)Nc1cc(C)ccn1
GI50 (BT-549): > 100 µM (inactive)
GI50 (COLO 205): > 100 µM (inactive)
GI50 (DU-145): > 100 µM (inactive)
GI50 (HOP-62): 66.8 µM (inactive)
GI50 (IGROV-1): 74 µM (inactive)
GI50 (KM12): > 100 µM (inactive)
GI50 (MDA-MB-231): 20 µM (inactive)
GI50 (MDA-MB-435): > 100 µM (inactive)
GI50 (Malme-3M): > 100 µM (inactive)
GI50 (NCI-H460): > 100 µM (inactive)
GI50 (OVCAR-8): > 100 µM (inactive)
GI50 (RPMI-8226): > 100 µM (inactive)
GI50 (RXF 393): 96.6 µM (inactive)
GI50 (SF-268): 91 µM (inactive)
GI50 (SF-295): > 100 µM (inactive)
GI50 (SNB-19): > 100 µM (inactive)
GI50 (SW-620): > 100 µM (inactive)
GI50 (TK-10): > 100 µM (inactive)
GI50 (UACC-257): > 100 µM (inactive)

CCOC(=O)c1nc2cc(C(F)(F)F)ccc2nc1Oc1ccc(C#N)cc1
GI50 (BT-549): > 100 µM (inactive)
GI50 (COLO 205): > 100 µM (inactive)
GI50 (DU-145): > 100 µM (inactive)
GI50 (IGROV-1): > 100 µM (inactive)
GI50 (KM12): > 100 µM (inactive)
GI50 (MDA-MB-231): > 100 µM (inactive)
GI50 (MDA-MB-435): > 100 µM (inactive)
GI50 (Malme-3M): > 100 µM (inactive)
GI50 (NCI-H460): > 100 µM (inactive)
GI50 (OVCAR-8): > 100 µM (inactive)
GI50 (RPMI-8226): 54.3 µM (inactive)
GI50 (RXF 393): 19.1 µM (inactive)
GI50 (SF-268): > 100 µM (inactive)
GI50 (SF-295): > 100 µM (inactive)
GI50 (SNB-19): > 100 µM (inactive)
GI50 (SW-620): > 100 µM (inactive)
GI50 (TK-10): > 100 µM (inactive)
GI50 (UACC-257): > 100 µM (inactive)

CCCCCCCCCCCCCCCCCCNc1ccn(C2OC(COP(=O)(O)OC3CC(n4cc(F)c(=O)[nH]c4=O)OC3COP(=O)(O)OCC3OC(n4ccc(N)nc4=O)C(O)C3O)C(O)C2O)c(=O)n1 (stereo not drawn)
GI50 (BT-549): 15.1 µM (inactive)
GI50 (COLO 205): 8.17 µM (inactive)
GI50 (DU-145): 1.08 µM (active)
GI50 (HOP-62): 10.4 µM (inactive)
GI50 (IGROV-1): 15.2 µM (inactive)
GI50 (KM12): 14.4 µM (inactive)
GI50 (MDA-MB-231): 26.2 µM (inactive)
GI50 (MDA-MB-435): 8.18 µM (inactive)
GI50 (Malme-3M): > 46.9 µM (inactive)
GI50 (NCI-H23): 2.92 µM (inactive)
GI50 (NCI-H460): < 0.0129 µM (active)
GI50 (OVCAR-8): 3.1 µM (inactive)
GI50 (RPMI-8226): 14.9 µM (inactive)
GI50 (RXF 393): 16 µM (inactive)
GI50 (SF-295): 0.413 µM (active)
GI50 (SNB-19): 9.2 µM (inactive)
GI50 (SW-620): 16.2 µM (inactive)
GI50 (TK-10): 2.56 µM (inactive)
GI50 (UACC-257): 22.6 µM (inactive)

O=C(/C=C/c1ccc(O)c(O)c1)Oc1ccccc1
GI50 (BT-549): 14.9 µM (inactive)
GI50 (COLO 205): 9.57 µM (inactive)
GI50 (DU-145): 13.2 µM (inactive)
GI50 (HOP-62): 15.8 µM (inactive)
GI50 (IGROV-1): 4.19 µM (inactive)
GI50 (KM12): 9.29 µM (inactive)
GI50 (MDA-MB-231): 23.1 µM (inactive)
GI50 (MDA-MB-435): 14.5 µM (inactive)
GI50 (NCI-H23): 14.4 µM (inactive)
GI50 (NCI-H460): 19.2 µM (inactive)
GI50 (OVCAR-8): 12.7 µM (inactive)
GI50 (RPMI-8226): 3.17 µM (inactive)
GI50 (RXF 393): 8.71 µM (inactive)
GI50 (SF-268): 7.59 µM (inactive)
GI50 (SF-295): 19.5 µM (inactive)
GI50 (SNB-19): 20.4 µM (inactive)
GI50 (SW-620): 12.6 µM (inactive)
GI50 (TK-10): 28.1 µM (inactive)
GI50 (UACC-257): 22.8 µM (inactive)

N=c1oc2c(Br)cc(Br)cc2cc1C(=O)Nc1ccccn1
GI50 (BT-549): > 100 µM (inactive)
GI50 (COLO 205): > 100 µM (inactive)
GI50 (DU-145): 81.5 µM (inactive)
GI50 (HOP-62): 53 µM (inactive)
GI50 (IGROV-1): > 100 µM (inactive)
GI50 (KM12): 56.5 µM (inactive)
GI50 (MDA-MB-231): > 100 µM (inactive)
GI50 (MDA-MB-435): 62.1 µM (inactive)
GI50 (Malme-3M): 52.2 µM (inactive)
GI50 (NCI-H23): 69.2 µM (inactive)
GI50 (NCI-H460): 71.9 µM (inactive)
GI50 (OVCAR-8): 45.9 µM (inactive)
GI50 (RPMI-8226): 87.1 µM (inactive)
GI50 (RXF 393): 75.3 µM (inactive)
GI50 (SF-268): 78.9 µM (inactive)
GI50 (SNB-19): > 100 µM (inactive)
GI50 (SW-620): > 100 µM (inactive)
GI50 (UACC-257): > 100 µM (inactive)

COC1(CC[C@@H](C)COC2OC(CO)C(O)C(O)C2O)O[C@H]2C[C@H]3[C@@H]4CC=C5C[C@@H](OC6OC(CO)C(OC7OC(C)C(O)C(O)C7O)C(O)C6OC6OC(C)C(O)C(O)C6O)CC[C@]5(C)[C@H]4CC[C@]3(C)[C@H]2[C@@H]1C (stereo partly drawn)
GI50 (BT-549): 3.52 µM (inactive)
GI50 (COLO 205): 5.15 µM (inactive)
GI50 (DU-145): 2.28 µM (inactive)
GI50 (HOP-62): 2.56 µM (inactive)
GI50 (IGROV-1): 4.59 µM (inactive)
GI50 (KM12): 2.1 µM (inactive)
GI50 (MDA-MB-231): 1.6 µM (inactive)
GI50 (MDA-MB-435): 2.02 µM (inactive)
GI50 (Malme-3M): 3.01 µM (inactive)
GI50 (NCI-H23): 3.97 µM (inactive)
GI50 (OVCAR-8): 3.53 µM (inactive)
GI50 (RPMI-8226): 6.62 µM (inactive)
GI50 (RXF 393): 3.41 µM (inactive)
GI50 (SF-268): 3.18 µM (inactive)
GI50 (SF-295): 2.82 µM (inactive)
GI50 (SNB-19): 3.17 µM (inactive)
GI50 (SW-620): 1.14 µM (inactive)
GI50 (TK-10): 17.2 µM (inactive)
GI50 (UACC-257): 3.51 µM (inactive)
